{"source": "paper PMC12109412", "data": [{"experiment": "Single-molecule FRET cyclization (looping) of surface-immobilised 83 bp duplex with complementary 10-nt 5' overhangs; noncovalent ring closure by sticky-end hybridisation triggered by 1 M NaCl (no ligase)", "conditions": "the molecule shown is the open-chain precursor, water, 50 mM Tris-HCl, 3 mM Trolox, glucose oxidase/catalase oxygen scavenger, other", "units": {"ring closure, halflife": "min"}, "values": [{"substance": "DNA 5'-Cy5-agagaaagaggcaaaaggggacggaagggaT(biotin)ggagccagaggagggggtgacagttgagtctcagccacaggtgaaggtggagccactggagg-3' / RNA 5'-Cy3-cucuuucucuccuccaguggcuccaccuucaccuguggcugagacucaacugucacccccuccucuggcuccaucccuuccguccccuuuugc-3'", "ring closure, halflife": 26.1}, {"substance": "DNA 5'-Cy5-acggattctgtgaaacggtggaggtgaggaT(biotin)agtcatgggtcaattagaagtcataggagaagtattaagggagtctatattgaggtactagc-3' / RNA 5'-Cy3-cagaauccgugcuaguaccucaauauagacucccuuaauacuucuccuaugacuucuaauugacccaugacuauccucaccuccaccguuuca-3'", "ring closure, halflife": 20.4}, {"substance": "DNA 5'-Cy5-gaagaagaggaaaaaagaaaagggacagaT(biotin)ggcaatgatggagccagggacggaggcgatggagccagtggagccggagatgaagcctctgga-3' / RNA 5'-Cy3-ccucuucuucuccagaggcuucaucuccggcuccacuggcuccaucgccuccgucccuggcuccaucauugccaucugucccuuuucuuuuuu-3'", "ring closure, halflife": 21.7}, {"substance": "DNA 5'-Cy5-cctccagtggctccaccttcacctgtggcT(biotin)gagactcaactgtcaccccctcctctggctccatcccttccgtccccttttgcctctttctct-3' / RNA 5'-Cy3-ccacuggaggagagaaagaggcaaaaggggacggaagggauggagccagaggagggggugacaguugagucucagccacaggugaagguggag-3'", "ring closure, halflife": 10.8}, {"substance": "DNA 5'-Cy5-acggattctgtgaaacggtggaggtgaggaT(biotin)agtcatgggtcaattagaagtcataggagaagtattaagggagtctatattgaggtactagc-3' / DNA 5'-Cy3-cagaatccgtgctagtacctcaatatagactcccttaatacttctcctatgacttctaattgacccatgactatcctcacctccaccgtttca-3'", "ring closure, halflife": 31.5}, {"substance": "DNA 5'-Cy5-tccagaggcttcatctccggctccactggcT(biotin)ccatcgcctccgtccctggctccatcattgccatctgtcccttttcttttttcctcttcttc-3' / RNA 5'-Cy3-agccucuggagaagaagaggaaaaaagaaaagggacagauggcaaugauggagccagggacggaggcgauggagccaguggagccggagauga-3'", "ring closure, halflife": 10.3}]}]}
